In brackets after ≈: the same amount, converted by molar mass. Read-outs that look alike come from different tables or passages of the source.
Tests used:
M.tb Erdman = experiment: Broth microdilution MIC with Alamar blue endpoint (MABA) / OD600; format: cell-based, Mycobacterium tuberculosis
M.tb H37Rv = experiment: as above; format: cell-based, Mycobacterium tuberculosis
[1] = system: African green monkey kidney (Vero; ATCC # CCL81) cells; experiment: In vitro cytotoxicity (PrestoBlue cell viability), Vero; format: cell-based
[2] = system: human hepatocyte/liver (HepG2; ATCC #HB8065) cells; experiment: In vitro cytotoxicity (PrestoBlue cell viability), HepG2; format: cell-based
[3] = system: M. Tuberculosis Erdman or H37Rv vs VERO or HepG2 cells; experiment: Selectivity Index (mammalian cell IC50 / bacterial MIC); design: species or system Mycobacterium tuberculosis
[4] = system: mitochondrial protein synthesis (COX-1/SDH-A ratio) in H9C2 rat heart myoblast cells; experiment: Mitochondrial protein synthesis inhibition (MitoBiogenesis in-cell ELISA, COX-1/SDH-A); format: cell-based; conditions: 120 h, five days, read-out: MPS IC50
MRSA ATCC BAA-1556 = experiment: MIC against methicillin resistant Staphylococcus aureus (MRSA)
MRSA ATCC 43300 = experiment: as above; conditions: read-out: MRSA MIC, ATCC 43300
MRSA 880 NR-49120 = experiment: as above; conditions: read-out: MRSA MIC, 880 NR-49120
[5] = Aqueous solubility (visually clear solutions); format: physicochemical; conditions: aqueous, 1 N HCl and/or water added
Description: Working stocks of the compounds were prepared as follows: to an aliquot of a compound (free base) in a powder form 1-1.5 equivalents of HCl in the form of 1 N aqueous solution was added, and the mixture was vortexed until homogeneity. To the resulting cake or syrup, water was added typically to the final 10 mg/ml, and complete dissolution was observed. In some instances, 0.95 equivalents of HCl were added to the free base form of the drug, and 20 mg/ml stock solution was prepared.
Aqueous solubility of the compounds of the present disclosure is illustrated by the following observations of obtaining visually clear solutions: […]

M.avium = experiment: MIC in nontuberculosis mycobacteria (microbroth dilution, resazurin); format: cell-based, Mycobacterium avium; conditions: Mycobacterium avium, read-out: MIC
M. chelonae = experiment: as above; format: cell-based, Mycobacterium chelonae; conditions: Mycobacteroides chelonae, read-out: MIC
M. abscessus = experiment: as above; format: cell-based, Mycobacterium abscessus; conditions: Mycobacteroides abscessus, read-out: MIC
M. kansasii = experiment: as above; format: cell-based; conditions: Mycobacterium kansasii, read-out: MIC
M. massiliense = experiment: as above; format: cell-based, Mycobacterium massiliense
[6] = In vitro burst release of liposomal drug in plasma, human; conditions: mouse or human plasma, 20 min 37° C., 0.5 M AS liposomes, 40-65 mol% Chol (FIG. 5A, 5B)
Description: The plasma was thawed, if necessary, adjusted to pH 7.4 with 1 N HCl, and sequentially filtered through glass microfiber filters (GF/C), 1 µm polyethersulfone (PES), and 0.22 µm PES filters. Plasma (80 µl) was mixed with liposomal drug formulations (20 µl) in a 0.5 ml Eppendorf tube. The mixture was subsequently incubated for 20 min at 37° C. and then put into chilled water.
Incubation time was 20 min.

[7] = Liposome loading / encapsulation efficiency (General protocol); conditions: for maximum drug load: HSPC:Chol 3:2, 0.5 mol% PEG-DSG (Example 14)
[8] = read-out: MRSA MIC, ATCC BAA-1556
[9] = Mycobacterium tuberculosis, ERDMAN; read-out: Mycobacterium tuberculosis MIC, Erdman
[10] = Mycobacterium tuberculosis; M. tuberculosis Erdman / H37Rv, strains not separated; read-out: MIC
[11] = Mycobacterium tuberculosis, H37RV; as determined in Example 2; read-out: MIC (H37Rv)
[12] = Mycobacterium tuberculosis, H37RV; read-out: Mycobacterium tuberculosis MIC, H37Rv
[13] = Chlorocebus sabaeus, Vero, 72 h; read-out: Cell viability IC50, VERO
[14] = Homo sapiens, HepG2, 72 h; read-out: Cell viability IC50, HepG2

Cl.Cl.NCCn1nnc(-c2ccc(-c3ccc(N4C[C@H](CN)OC4=O)cc3F)cn2)n1 [AKG-29]
MIC (M.tb Erdman; Mycobacterium tuberculosis, ERDMAN, read-out: Mycobacterium tuberculosis MIC, Erdman): 0.25 µg/mL | MIC (M.tb H37Rv; Mycobacterium tuberculosis, H37RV, read-out: MIC (H37Rv)): 0.125 µg/mL | MIC (M.tb H37Rv; Mycobacterium tuberculosis, H37RV, read-out: Mycobacterium tuberculosis MIC, H37Rv): 0.125 µg/mL | IC50 ([1]; Chlorocebus sabaeus, Vero, 72 h, read-out: Cell viability IC50, VERO): 110 µg/mL | IC50 ([2]; Homo sapiens, HepG2, 72 h, read-out: Cell viability IC50, HepG2): 74.4 µg/mL | Selectivity Index (SI) Erd/HepG2 [3]: 297.6 | Selectivity Index (SI) Erd/VERO [3]: 439.6 | IC50 [4]: 4.11 µg/mL | MIC (MRSA ATCC BAA-1556; read-out: MRSA MIC): > 50 µg/mL | MIC (MRSA ATCC BAA-1556; [8]): 50 µg/mL | MIC (MRSA ATCC 43300): > 50 µg/mL | MIC (MRSA 880 NR-49120): 50 µg/mL

CC(=O)NC[C@H]1CN(c2ccc(-c3ccc(-c4nnn(CCN(C)C)n4)nc3)c(F)c2)C(=O)O1 [AKG-38]
MIC (M.tb Erdman; [9]): 0.06 µg/mL (≈ 0.128 µM) | MIC (M.tb Erdman; [10]): 0.06 µg/mL (≈ 0.128 µM) | MIC (M.tb H37Rv; [11]): 0.06 µg/mL (≈ 0.128 µM) | MIC (M.tb H37Rv; [12]): 0.06 µg/mL (≈ 0.128 µM) | IC50 [1, 13]: 395 µg/mL (≈ 843 µM) | IC50 [2, 14]: 97 µg/mL (≈ 207 µM) | Concentration % (w/w) of free base (visually clear solution) [5]: 7.1 % (w/w) | IC50 [4]: 0.041 µg/mL (≈ 0.0875 µM) | MIC (M.avium; M. avium sbsp. avium strain 2285 R): 0.06 µg/mL (≈ 0.128 µM) | MIC (M.avium; M. avium sbsp. avium strain 2285 S): 0.125 µg/mL (≈ 0.267 µM) | MIC (M.avium; M. avium sbsp. avium strain 3993): 0.125 µg/mL (≈ 0.267 µM) | MIC (M. chelonae; M. chelonae strain 49): 0.06 µg/mL (≈ 0.128 µM) | MIC (M. chelonae; M. chelonae strain 69): 0.5 µg/mL (≈ 1.07 µM) | MIC (M. chelonae; M. chelonae strain 35752): 0.06 µg/mL (≈ 0.128 µM) | MIC (M. abscessus; M. abscessus sbsp. abscessus strain 21): 0.06 µg/mL (≈ 0.128 µM) | MIC (M. abscessus; M. abscessus sbsp. abscessus strain 1513): 32 µg/mL (≈ 68.3 µM) | MIC (M. abscessus; M. abscessus sbsp. abscessus strain 1948): 0.06 µg/mL (≈ 0.128 µM) | MIC (M. kansasii; M. kansasii strain 662): > 32 µg/mL | MIC (M. kansasii; M. kansasii strain 732): 0.03 µg/mL (≈ 0.064 µM) | MIC (M. kansasii; M. kansasii strain 824): 0.06 µg/mL (≈ 0.128 µM) | MIC (M. kansasii; M. kansasii strain MK13D6): 0.03 µg/mL (≈ 0.064 µM) | MIC (M. kansasii; M. kansasii strain WT171017): 0.03 µg/mL (≈ 0.064 µM) | MIC (M. massiliense; M. massiliense strain M154): 0.25 µg/mL (≈ 0.534 µM) | MIC (M. massiliense; Mycobacteroides abscessus, CIP108297, M. massiliense strain CIP 108297, read-out: MIC): 0.5 µg/mL (≈ 1.07 µM) | MIC (M. massiliense; Mycobacteroides abscessus, M. massiliense strain CRM0019, read-out: MIC): 0.25 µg/mL (≈ 0.534 µM) | burst release phenomenon in plasma in vitro [6]: observed in both human and mouse plasma for the formulations with cholesterol content of 40 mol.% and 45 mol.%, but not at cholesterol content of 50 mol.% or more | MIC (MRSA ATCC BAA-1556; [8]): 1.85 µg/mL (≈ 3.95 µM) | MIC (MRSA ATCC 43300): 1.85 µg/mL (≈ 3.95 µM) | MIC (MRSA 880 NR-49120): 0.617 µg/mL (≈ 1.32 µM) | maximum drug load ([7]; 0.5 M AS): 818-842 g/mol PhL | maximum drug load ([7]; 1 N TEA-SOS): 989 g/mol PhL | liposome aggregation during drug loading ([7]; 30 mol% cholesterol, 1 N TEA-SOS, AKG-28: 5 mol% PEG-DSG or PEG-DSPE, AKG-38: 5 mol% PEG-DSPE): irreversibly aggregated during the drug loading | drug load ([7]; 30 mol% cholesterol, 5 mol % PEG-DSG, 1 N TEA-SOS): 462.4 g/mol PhL

CCN(CC)CCn1nnc(-c2ccc(-c3ccc(N4C[C@H](CNC(C)=O)OC4=O)cc3F)cn2)n1 [AKG-39]
MIC (M.tb Erdman; [9]): 0.5 µg/mL (≈ 1.01 µM) | MIC (M.tb Erdman; [10]): 0.5 µg/mL (≈ 1.01 µM) | MIC (M.tb H37Rv; [11]): 0.5 µg/mL (≈ 1.01 µM) | MIC (M.tb H37Rv; [12]): 0.5 µg/mL (≈ 1.01 µM) | IC50 [1, 13]: 201 µg/mL (≈ 405 µM) | IC50 [2, 14]: 70 µg/mL (≈ 141 µM) | Selectivity Index (SI) Erd/HepG2 [3]: 140.0 | Selectivity Index (SI) Erd/VERO [3]: 402.0 | IC50 [4]: 0.06 µg/mL (≈ 0.121 µM) | MIC (MRSA ATCC BAA-1556; [8]): 1.85 µg/mL (≈ 3.73 µM) | MIC (MRSA ATCC 43300): 1.85 µg/mL (≈ 3.73 µM) | MIC (MRSA 880 NR-49120): 1.85 µg/mL (≈ 3.73 µM)

CCN(CC)CCCn1nnc(-c2ccc(-c3ccc(N4C[C@H](CNC(C)=O)OC4=O)cc3F)cn2)n1 [AKG-40]
Mycobacterium tuberculosis MIC, Erdman (M.tb Erdman): 1 to 2 µg/mL | MIC (M.tb Erdman; [9]): 1 µg/mL (≈ 1.96 µM) | Mycobacterium tuberculosis MIC, H37Rv (M.tb H37Rv): 0.5 µg/mL | MIC (M.tb H37Rv; [11]): 0.5 µg/mL (≈ 0.979 µM) | MIC (M.tb H37Rv; [12]): 0.5 µg/mL (≈ 0.979 µM) | IC50 [1, 13]: > 250 µg/mL | IC50 [2, 14]: 113 µg/mL (≈ 221 µM) | Selectivity Index (SI) Erd/HepG2 [3]: 113.0 | Selectivity Index (SI) Erd/VERO [3]: >250.0 | IC50 [4]: 0.064 µg/mL (≈ 0.125 µM) | MIC (MRSA ATCC BAA-1556; [8]): 1.85 µg/mL (≈ 3.62 µM) | MIC (MRSA ATCC 43300): 5.55 µg/mL (≈ 10.9 µM) | MIC (MRSA 880 NR-49120): 1.85 µg/mL (≈ 3.62 µM)

Reference: patent publication US20230348447A1, “OXAZOLIDINONE COMPOUNDS, LIPOSOME COMPOSITIONS COMPRISING OXAZOLIDINONE COMPOUNDS AND METHOD OF USE THEREOF” (priority 2020, published 2023)
